{"source": "patent US20210369853A1", "about": "“TARGETED PROTEASE DEGRADATION PLATFORM” (EUBULUS BIOTHERAPEUTICS INC., priority 2018, published 2021)", "type_in_all_cases": "cell-based", "key": {"[1]": {"tested_on": "Human Monocytic Leukemia MV4-11", "experiment": "Cell proliferation experiment (Alarm blue, 72 h, EC50)", "conditions": "Homo sapiens", "outline": "(§1)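 Single-cell suspensions from log-phase cultures are plated, compound in complete medium is added at 5-fold dilution steps (two replicates each), and cells grow for 72 h. Viability is then measured as Alamar blue fluorescence, giving EC50 by sigmoidal fitting.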"}, "PLK1": {"molecular_target": "T1, PLK1 (Homo sapiens, UniProt P53350)", "T1 construct": "endogenous in cells", "T1 sequence (P53350 whole entry)": "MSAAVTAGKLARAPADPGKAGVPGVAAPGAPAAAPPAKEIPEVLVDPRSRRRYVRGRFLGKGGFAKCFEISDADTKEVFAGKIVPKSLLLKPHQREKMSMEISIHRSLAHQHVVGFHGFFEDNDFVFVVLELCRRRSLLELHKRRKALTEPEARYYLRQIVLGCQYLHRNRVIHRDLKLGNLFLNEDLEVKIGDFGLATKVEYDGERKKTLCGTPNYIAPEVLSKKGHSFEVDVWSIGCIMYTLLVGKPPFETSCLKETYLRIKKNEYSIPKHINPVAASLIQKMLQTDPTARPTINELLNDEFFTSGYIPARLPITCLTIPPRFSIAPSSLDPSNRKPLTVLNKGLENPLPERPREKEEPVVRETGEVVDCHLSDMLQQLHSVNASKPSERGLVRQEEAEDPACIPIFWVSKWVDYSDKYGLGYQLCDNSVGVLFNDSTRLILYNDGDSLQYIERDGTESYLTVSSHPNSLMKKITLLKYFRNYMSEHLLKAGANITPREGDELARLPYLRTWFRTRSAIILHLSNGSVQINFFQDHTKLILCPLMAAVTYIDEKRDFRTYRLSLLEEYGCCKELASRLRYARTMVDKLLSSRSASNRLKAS", "experiment": "Western blot, protein degradation (DC50)", "procedure": "(§2) Cells were treated with the compound for a period of time, after that the cells were collected by centrifugation. After washing with PBS, the cells were lysed by adding RIPA buffer; the cell lysate were added to the loading buffer and then appropriate volume were taken and slowly added to the corresponding wells of the gel plate, and run the SDS-PAGE gel (4%-12%). After running the gel, transferred to the PVDF membrane and sealed with 5% skimmed milk powder at room temperature for 1 hour. The membrane was placed in the primary antibody diluted with 5% skimmed milk powder and shaked slowly overnight at 4° C. After incubation with primary antibody, the membrane was washed 3 times using a TBST shaker; added secondary antibody diluted with 5% skimmed milk powder corresponding to the primary antibody, and shaked slowly at room temperature for 1 hour. After incubation with secondary antibody, the membrane was washed 3 times using the TBST shaker again. The PVDF membrane was flatted in the cassette, the strip was evenly infiltrated with ECL developer solution, and placed in ChemDoc XRS+ gel imager for taking pictures. The intensity of protein bands was analyzed quantitatively using ImageJ software."}, "BRD4": {"molecular_target": "T2, BRD4 (Homo sapiens, UniProt O60885)", "T2 construct": "endogenous in cells", "experiment": "Western blot, protein degradation (DC50)", "procedure": "as §2"}, "[2]": {"tested_on": "Human cervical adenocarcinoma cells Hela", "experiment": "Cell proliferation experiment (Alarm blue, 72 h, EC50)", "conditions": "Homo sapiens", "outline": "as §1"}, "[3]": {"tested_on": "Human Colon Cancer HCT-116", "experiment": "Cell proliferation experiment (Alarm blue, 72 h, EC50)", "conditions": "Homo sapiens, HCT-116; HCT116 cells", "outline": "as §1"}, "[4]": {"conditions": "6 h, western blot, read-out: PLK1 DC50 (6 h)"}, "[5]": {"conditions": "24 h, western blot, read-out: PLK1 DC50 (24 h)"}, "[6]": {"conditions": "6 h, western blot, read-out: BRD4 DC50 (6 h)"}, "[7]": {"conditions": "24 h, western blot, read-out: BRD4 DC50 (24 h)"}, "[8]": {"conditions": "24 h, read-out: PLK1 DC50 (nM) (24 h)"}, "[9]": {"conditions": "24 h, read-out: BRD4 DC50 (nM) (24 h)"}, "[10]": {"conditions": "24 h, read-out: BRD4 DC50 (24 h)"}}, "note": "Like-named read-outs stand apart in the source and are kept apart here.", "data": [{"smiles": "CC[C@@H]1C(=O)N(C)c2cnc(Nc3ccc(C(=O)NCCOCCOCCOCCNCC(=O)Nc4cccc5c4CN(C4CCC(=O)NC4=O)C5=O)cc3OC)nc2N1C1CCCC1", "note": "(stereo partly drawn) [UB-180663]", "values": [{"measurement": "EC50", "setting": "[1]; MV4;11 cells", "result": "10 to 100", "unit": "nM"}, {"measurement": "DC50", "setting": "PLK1; [4]", "result": "< 10", "unit": "nM"}, {"measurement": "DC50", "setting": "PLK1; [5]", "result": "< 10", "unit": "nM"}, {"measurement": "DC50", "setting": "BRD4; [6]", "result": "< 10", "unit": "nM"}, {"measurement": "DC50", "setting": "BRD4; [7]", "result": "< 10", "unit": "nM"}]}, {"smiles": "CC[C@@H]1c2c(C#N)ncn2-c2cnc(Nc3ccc(C(=O)NCc4cn(CCNCCOCC(=O)Nc5cccc6c5CN(C5CCC(=O)NC5=O)C6=O)nn4)cc3OC)nc2N1C1CCCC1", "note": "(stereo partly drawn) [UB-180718]", "values": [{"measurement": "EC50", "setting": "[1]; MV4-11, MV4;11 cells", "result": "100 to 1000", "unit": "nM"}, {"measurement": "DC50", "setting": "PLK1; [8]", "result": "100 to 1000", "unit": "nM"}, {"measurement": "DC50", "setting": "BRD4; [9]", "result": "100 to 1000", "unit": "nM"}]}, {"smiles": "CC[C@@H]1c2nncn2-c2cnc(Nc3ccc(C(=O)NCCOCCOCC(=O)N[C@H](C(=O)N4C[C@H](O)C[C@H]4C(=O)NCc4ccc(-c5scnc5C)cc4)C(C)(C)C)cc3OC)nc2N1C1CCCC1", "note": "[UB-180564]", "values": [{"measurement": "EC50", "setting": "[1]; MV4-11, MV4;11 cells", "result": "100 to 1000", "unit": "nM"}, {"measurement": "EC50", "setting": "[2]", "result": "> 1000", "unit": "nM"}]}, {"smiles": "CC[C@@H]1c2c(C#N)ncn2-c2cnc(Nc3ccc(C(=O)NCCOCCOCCOCCOCCC(=O)N[C@H](C(=O)N4C[C@H](O)C[C@H]4C(=O)NCc4ccc(-c5scnc5C)cc4)C(C)(C)C)cc3OC)nc2N1C1CCCC1", "note": "[UB-180552]", "values": [{"measurement": "EC50", "setting": "[1]; MV4-11, MV4;11 cells", "result": "100 to 1000", "unit": "nM"}, {"measurement": "EC50", "setting": "[2]", "result": "> 1000", "unit": "nM"}]}, {"smiles": "CC[C@@H]1c2nncn2-c2cnc(Nc3ccc(C(=O)NCCCCOCC(=O)N[C@H](C(=O)N4C[C@H](O)C[C@H]4C(=O)NCc4ccc(-c5scnc5C)cc4)C(C)(C)C)cc3OC)nc2N1C1CCCC1", "note": "[UB-180555]", "values": [{"measurement": "EC50", "setting": "[1]; MV4-11, MV4;11 cells", "result": "10 to 100", "unit": "nM"}, {"measurement": "EC50", "setting": "[2]", "result": "> 1000", "unit": "nM"}]}, {"smiles": "CC[C@@H]1c2c(C#N)ncn2-c2cnc(Nc3ccc(C(=O)NCCOCCOCC(=O)N[C@H](C(=O)N4C[C@H](O)C[C@H]4C(=O)NCc4ccc(-c5scnc5C)cc4)C(C)(C)C)cc3OC)nc2N1C1CCCC1", "note": "[UB-180563]", "values": [{"measurement": "EC50", "setting": "[1]; MV4-11, MV4;11 cells", "result": "100 to 1000", "unit": "nM"}, {"measurement": "EC50", "setting": "[2]", "result": "> 1000", "unit": "nM"}]}, {"smiles": "CC[C@@H]1c2c(C#N)ncn2-c2cnc(Nc3ccc(C(=O)NCCOCCOCCOCC(=O)N[C@H](C(=O)N4C[C@H](O)C[C@H]4C(=O)NCc4ccc(-c5scnc5C)cc4)C(C)(C)C)cc3OC)nc2N1C1CCCC1", "note": "[UB-180519]", "values": [{"measurement": "EC50", "setting": "[1]; MV4-11, MV4;11 cells", "result": "10 to 100", "unit": "nM"}, {"measurement": "EC50", "setting": "[2]", "result": "> 1000", "unit": "nM"}]}, {"smiles": "CC[C@@H]1C(=O)N(C)c2cnc(Nc3ccc(C(=O)NCCCNCCCCCCCC(=O)Nc4cccc5c4CN(C4CCC(=O)NC4=O)C5=O)cc3OC)nc2N1C1CCCC1", "note": "(stereo partly drawn) [UB-180632]", "values": [{"measurement": "EC50", "setting": "[1]; MV4-11, MV4;11 cells", "result": "10 to 100", "unit": "nM"}, {"measurement": "DC50", "setting": "PLK1; 6 h, read-out: PLK1 DC50 (6 h)", "result": "< 10", "unit": "nM"}, {"measurement": "DC50", "setting": "BRD4; 6 h, read-out: BRD4 DC50 (6 h)", "result": "< 10", "unit": "nM"}]}, {"smiles": "CC[C@@H]1C(=O)N(C)c2cnc(Nc3ccc(C(=O)NCCOCCOCCOCC(=O)N[C@H](C(=O)N4C[C@H](O)C[C@H]4C(=O)NCc4ccc(-c5scnc5C)cc4)C(C)(C)C)cc3OC)nc2N1Cc1ccc(Br)cc1", "note": "[UB-180601]", "values": [{"measurement": "DC50", "setting": "PLK1; 6 h, read-out: PLK1 DC50 (6 h)", "result": "> 1000", "unit": "nM"}, {"measurement": "DC50", "setting": "BRD4; 6 h, read-out: BRD4 DC50 (6 h)", "result": "> 1000", "unit": "nM"}]}, {"smiles": "CC[C@@H]1C(=O)N(C)c2cnc(Nc3ccc(C(=O)NCCOCCOCCOCCNCCCCC(=O)Nc4cccc5c4CN(C4CCC(=O)NC4=O)C5=O)cc3OC)nc2N1C1CCCC1", "note": "(stereo partly drawn) [UB-180666]", "values": [{"measurement": "EC50", "setting": "[1]; MV4-11, MV4;11 cells", "result": "10 to 100", "unit": "nM"}, {"measurement": "DC50", "setting": "PLK1; [5]", "result": "10 to 100", "unit": "nM"}, {"measurement": "DC50", "setting": "BRD4; [7]", "result": "< 10", "unit": "nM"}]}, {"smiles": "CC[C@@H]1C(=O)N(C)c2cnc(Nc3ccc(C(=O)NCCCNCCCCCCC(=O)Nc4cccc5c4CN(C4CCC(=O)NC4=O)C5=O)cc3OC)nc2N1C1CCCC1", "note": "(stereo partly drawn) [UB-180631]", "values": [{"measurement": "EC50", "setting": "[1]; MV4-11, MV4;11 cells", "result": "10 to 100", "unit": "nM"}, {"measurement": "DC50", "setting": "PLK1; 24 h, read-out: PLK1 DC50 (24 h)", "result": "10 to 100", "unit": "nM"}, {"measurement": "DC50", "setting": "BRD4; [10]", "result": "< 10", "unit": "nM"}]}, {"smiles": "CC[C@@H]1C(=O)N(C)c2cnc(Nc3ccc(C(=O)NCCCOCC(N)COCCC(=O)Nc4cccc5c4CN(C4CCC(=O)NC4=O)C5=O)cc3OC)nc2N1C1CCCC1", "note": "(stereo partly drawn) [UB-180624]", "values": [{"measurement": "EC50", "setting": "[1]; MV4-11, MV4;11 cells", "result": "10 to 100", "unit": "nM"}, {"measurement": "DC50", "setting": "BRD4; [10]", "result": "< 10", "unit": "nM"}]}, {"smiles": "CC[C@@H]1C(=O)N(C)c2cnc(Nc3ccc(C(=O)NCc4cn(CCCN(CCC(=O)Nc5cccc6c5CN(C5CCC(=O)NC5=O)C6=O)C(=O)OCc5ccc(NC(=O)[C@H](CCCNC(N)=O)NC(=O)[C@@H](NC(=O)CCCCCN6C(=O)C=CC6=O)C(C)C)cc5)nn4)cc3OC)nc2N1C1CCCC1", "note": "(stereo partly drawn) [UB-180717]", "values": [{"measurement": "EC50", "setting": "[1]; MV4-11, MV4;11 cells", "result": "100 to 1000", "unit": "nM"}, {"measurement": "DC50", "setting": "PLK1; [8]", "result": "10 to 100", "unit": "nM"}, {"measurement": "DC50", "setting": "BRD4; [9]", "result": "10 to 100", "unit": "nM"}]}, {"smiles": "CC[C@@H]1C(=O)N(C)c2cnc(Nc3ccc(C(=O)NCCCNCCCCC(=O)Nc4cccc5c4CN(C4CCC(=O)NC4=O)C5=O)cc3OC)nc2N1Cc1ccc(Cl)s1", "note": "(stereo partly drawn) [UB-180673]", "values": [{"measurement": "EC50", "setting": "[1]; MV4-11, MV4;11 cells", "result": "10 to 100", "unit": "nM"}, {"measurement": "DC50", "setting": "PLK1; [4]", "result": "10 to 100", "unit": "nM"}, {"measurement": "DC50", "setting": "BRD4; [6]", "result": "10 to 100", "unit": "nM"}]}, {"smiles": "CC[C@@H]1C(=O)N(C)c2cnc(Nc3ccc(C(=O)NCCOCCOCCOCCNCCCC(=O)Nc4cccc5c4CN(C4CCC(=O)NC4=O)C5=O)cc3OC)nc2N1C1CCCC1", "note": "(stereo partly drawn) [UB-180636]", "values": [{"measurement": "EC50", "setting": "[1]; MV4;11 cells", "result": "10 to 100", "unit": "nM"}, {"measurement": "DC50", "setting": "PLK1; 6 h, read-out: PLK1 DC50 (6 h)", "result": "10 to 100", "unit": "nM"}, {"measurement": "DC50", "setting": "BRD4; 6 h, read-out: BRD4 DC50 (6 h)", "result": "10 to 100", "unit": "nM"}]}, {"smiles": "Cc1sc2c(c1C)C(c1ccc(Cl)cc1)=N[C@@H](CC(=O)NCCCNCCCCC(=O)Nc1cccc3c1CN(C1CCC(=O)NC1=O)C3=O)c1nnc(C)n1-2", "note": "(stereo partly drawn) [UB-180641]", "values": [{"measurement": "EC50", "setting": "[3]", "result": "> 1000", "unit": "nM"}, {"measurement": "EC50", "setting": "[1]; MV4-11, MV4;11 cells", "result": "100 to 1000", "unit": "nM"}]}]}
